In US20140113898A1, “BISARYLSULFONE AND DIALKYLARYLSULFONE COMPOUNDS AS CALCIUM CHANNEL BLOCKERS” (Zalicus Pharmaceuticals Ltd., priority 2010, published 2014):
pIC50: −log10 of the molar value. Like-named read-outs stand apart in the source and are kept apart here.

Molecular target: T1, CaV2.2 (Homo sapiens, UniProt Q00975)
T1 construct: expressed in transfected cells; host or cells: unnamed doxycycline-inducible cell line
Assay: High-throughput CaV2.2/Kir2.3 FLIPR fluorescent assay
Type: cell-based
Details: Fluo-4 FLIPR, closed or inactivated state not stated; for pIC50: read-out: FLIPR data CaV2.2
Experimental: Cells were plated in 384-well, clear-bottom, black-walled, poly-D-lysine coated plates (Becton Dickinson, Franklin Lake, N.J.) 2 days prior to use in the FLIPR assay. 100 μL of cells (1.4×10^6 cell/mL) containing doxycyline (Sigma-Aldrich, 1.5 μg/mL; to induce channel expression) were added to each well using a Multidrop (Thermo Scientific, Waltham, Mass.) and were maintained in 5% CO2 incubator at 37° C. On the morning of the assay, cells were transferred to a 5% CO2 incubator at 29° C.
Cells were washed with a wash buffer containing (in mM): 118 NaCl, 18.4 HEPES, 11.7 D-glucose, 2 CaCl2, 0.5 MgSO4, 4.7 KCl, 1.2 KH2PO4, pH adjusted to 7.2 with NaOH. 4.4 μM of the fluorescent indicator dye, Fluo-4 (Invitrogen), prepared in pluronic acid (Sigma-Aldrich), was loaded into the wells and incubated for 45 minutes at 29° C. in 5% CO2. Cells were then rinsed with either a 2 mM KCl closed-state buffer (in mM: 138.5 NaCl, 10 HEPES, 10 D-glucose, 1 CaCl2, and 2 KCl, with the pH adjusted to 7.4 with NaOH) when performing the closed-state assay or 12.5 mM KCl inactivated-state buffer (in mM: 128 NaCl, 10 HEPES, 10 D-glucose, 1 CaCl2, and 12.5 mM KCl, with the pH adjusted to 7.4 with NaOH) when performing the inactivated-state assay.
Calcium entry was evoked with an addition of 130 mM KCl stimulation buffer (in mM: 10.5 NaCl, 10 HEPES, 10 D-glucose, 1 CaCl2, and 130 KCl, with the pH adjusted to 7.4 with NaOH) for both the closed-state or inactivated-state assay. A change in the Fluo-4 fluorescence signal was assessed using FLIPR^TETRA™ instrument (Molecular Devices, Sunnyvale, Calif.) for 3 minutes following the elevation of extracellular KCl using an illumination wavelength of 470-495 nm with emissions recorded at 515-575 nm.
Concentration-dependent response curves were obtained by comparing the fluorescence signal in the presence of compound and fitted with a logistic function (1) to obtain the concentration that inhibited 50% (IC50) of the RLU signal using OriginPro v.7.5 software (OriginLab, Northampton, Mass.).
To assess the quality of the FLIPR assays the Z-factor (2) was used to quantify the suitability of the assay conditions using the following equation: […]
Data are expressed as mean and standard deviation (SD).

T1 sequence (Q00975 whole entry): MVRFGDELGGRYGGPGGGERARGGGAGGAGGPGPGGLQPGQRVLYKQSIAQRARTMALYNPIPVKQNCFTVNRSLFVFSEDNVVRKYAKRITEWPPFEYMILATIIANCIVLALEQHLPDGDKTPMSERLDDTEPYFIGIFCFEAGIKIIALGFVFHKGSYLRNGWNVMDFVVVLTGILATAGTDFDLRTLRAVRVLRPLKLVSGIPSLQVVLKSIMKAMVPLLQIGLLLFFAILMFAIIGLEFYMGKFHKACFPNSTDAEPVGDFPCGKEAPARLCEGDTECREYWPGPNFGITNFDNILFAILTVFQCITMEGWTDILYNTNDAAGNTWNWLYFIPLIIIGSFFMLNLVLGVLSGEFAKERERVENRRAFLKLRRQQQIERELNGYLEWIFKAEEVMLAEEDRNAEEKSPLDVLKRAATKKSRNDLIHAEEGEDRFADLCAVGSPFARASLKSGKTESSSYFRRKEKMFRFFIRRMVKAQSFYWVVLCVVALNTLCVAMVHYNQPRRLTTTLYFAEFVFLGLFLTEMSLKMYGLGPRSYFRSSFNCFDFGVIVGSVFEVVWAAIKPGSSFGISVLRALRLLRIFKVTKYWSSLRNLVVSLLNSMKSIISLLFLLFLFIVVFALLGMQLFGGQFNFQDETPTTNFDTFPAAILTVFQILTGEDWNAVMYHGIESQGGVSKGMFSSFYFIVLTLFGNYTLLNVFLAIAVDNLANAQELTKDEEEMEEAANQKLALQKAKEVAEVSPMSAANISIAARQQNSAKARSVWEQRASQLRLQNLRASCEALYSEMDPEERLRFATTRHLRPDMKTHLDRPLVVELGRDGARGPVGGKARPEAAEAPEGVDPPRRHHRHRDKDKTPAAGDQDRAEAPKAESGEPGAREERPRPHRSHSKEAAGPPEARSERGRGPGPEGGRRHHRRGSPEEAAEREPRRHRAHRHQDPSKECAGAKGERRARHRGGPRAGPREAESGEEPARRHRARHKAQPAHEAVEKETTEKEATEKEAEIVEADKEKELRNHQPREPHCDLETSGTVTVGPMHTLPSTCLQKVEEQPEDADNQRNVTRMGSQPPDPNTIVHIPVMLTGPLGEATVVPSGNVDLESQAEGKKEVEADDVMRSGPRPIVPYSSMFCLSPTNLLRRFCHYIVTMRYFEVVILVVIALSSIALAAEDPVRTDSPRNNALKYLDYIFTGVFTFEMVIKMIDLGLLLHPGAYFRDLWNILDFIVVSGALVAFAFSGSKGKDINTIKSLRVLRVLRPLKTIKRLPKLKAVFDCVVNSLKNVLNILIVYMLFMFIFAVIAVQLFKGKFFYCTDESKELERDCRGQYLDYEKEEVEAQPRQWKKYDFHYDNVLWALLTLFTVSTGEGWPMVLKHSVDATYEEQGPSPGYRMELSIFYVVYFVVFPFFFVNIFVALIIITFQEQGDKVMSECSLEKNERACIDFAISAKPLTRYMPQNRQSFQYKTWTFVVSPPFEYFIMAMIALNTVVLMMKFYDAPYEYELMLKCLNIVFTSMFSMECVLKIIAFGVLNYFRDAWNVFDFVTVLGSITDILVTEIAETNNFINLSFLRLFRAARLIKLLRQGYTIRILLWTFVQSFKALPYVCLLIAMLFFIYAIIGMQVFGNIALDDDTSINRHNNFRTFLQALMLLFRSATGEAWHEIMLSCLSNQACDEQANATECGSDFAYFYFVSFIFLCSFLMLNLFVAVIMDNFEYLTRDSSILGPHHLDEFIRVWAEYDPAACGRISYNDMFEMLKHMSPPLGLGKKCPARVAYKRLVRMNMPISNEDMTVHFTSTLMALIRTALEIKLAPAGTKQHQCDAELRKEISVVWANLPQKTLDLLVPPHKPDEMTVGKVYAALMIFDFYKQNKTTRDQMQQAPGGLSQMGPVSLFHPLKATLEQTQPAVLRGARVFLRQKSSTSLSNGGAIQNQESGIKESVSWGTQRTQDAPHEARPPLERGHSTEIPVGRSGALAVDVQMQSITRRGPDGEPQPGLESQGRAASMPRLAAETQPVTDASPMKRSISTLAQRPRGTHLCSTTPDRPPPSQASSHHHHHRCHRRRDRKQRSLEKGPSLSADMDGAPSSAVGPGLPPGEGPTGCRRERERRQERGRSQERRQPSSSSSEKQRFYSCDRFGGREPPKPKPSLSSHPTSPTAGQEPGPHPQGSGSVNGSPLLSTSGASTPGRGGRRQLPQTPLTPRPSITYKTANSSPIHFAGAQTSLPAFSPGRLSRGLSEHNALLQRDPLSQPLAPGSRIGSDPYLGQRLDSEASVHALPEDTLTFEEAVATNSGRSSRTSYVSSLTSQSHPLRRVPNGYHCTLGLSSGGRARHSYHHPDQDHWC
T1 sequence (P54284 whole entry partner): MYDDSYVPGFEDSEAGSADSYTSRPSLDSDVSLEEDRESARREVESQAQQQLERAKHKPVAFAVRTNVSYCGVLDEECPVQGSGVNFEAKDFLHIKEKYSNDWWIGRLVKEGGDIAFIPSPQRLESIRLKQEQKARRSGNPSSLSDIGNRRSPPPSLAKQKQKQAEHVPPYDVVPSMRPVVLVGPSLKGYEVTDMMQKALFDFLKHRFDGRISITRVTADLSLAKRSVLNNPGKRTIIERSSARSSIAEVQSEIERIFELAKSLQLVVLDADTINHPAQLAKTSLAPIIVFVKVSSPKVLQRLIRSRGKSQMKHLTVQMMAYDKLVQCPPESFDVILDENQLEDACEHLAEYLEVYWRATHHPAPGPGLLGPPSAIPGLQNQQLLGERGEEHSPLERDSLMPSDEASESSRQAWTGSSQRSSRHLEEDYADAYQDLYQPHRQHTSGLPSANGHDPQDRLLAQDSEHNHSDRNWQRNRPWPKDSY
T1 sequence (P54289 25-946 partner limits assumed): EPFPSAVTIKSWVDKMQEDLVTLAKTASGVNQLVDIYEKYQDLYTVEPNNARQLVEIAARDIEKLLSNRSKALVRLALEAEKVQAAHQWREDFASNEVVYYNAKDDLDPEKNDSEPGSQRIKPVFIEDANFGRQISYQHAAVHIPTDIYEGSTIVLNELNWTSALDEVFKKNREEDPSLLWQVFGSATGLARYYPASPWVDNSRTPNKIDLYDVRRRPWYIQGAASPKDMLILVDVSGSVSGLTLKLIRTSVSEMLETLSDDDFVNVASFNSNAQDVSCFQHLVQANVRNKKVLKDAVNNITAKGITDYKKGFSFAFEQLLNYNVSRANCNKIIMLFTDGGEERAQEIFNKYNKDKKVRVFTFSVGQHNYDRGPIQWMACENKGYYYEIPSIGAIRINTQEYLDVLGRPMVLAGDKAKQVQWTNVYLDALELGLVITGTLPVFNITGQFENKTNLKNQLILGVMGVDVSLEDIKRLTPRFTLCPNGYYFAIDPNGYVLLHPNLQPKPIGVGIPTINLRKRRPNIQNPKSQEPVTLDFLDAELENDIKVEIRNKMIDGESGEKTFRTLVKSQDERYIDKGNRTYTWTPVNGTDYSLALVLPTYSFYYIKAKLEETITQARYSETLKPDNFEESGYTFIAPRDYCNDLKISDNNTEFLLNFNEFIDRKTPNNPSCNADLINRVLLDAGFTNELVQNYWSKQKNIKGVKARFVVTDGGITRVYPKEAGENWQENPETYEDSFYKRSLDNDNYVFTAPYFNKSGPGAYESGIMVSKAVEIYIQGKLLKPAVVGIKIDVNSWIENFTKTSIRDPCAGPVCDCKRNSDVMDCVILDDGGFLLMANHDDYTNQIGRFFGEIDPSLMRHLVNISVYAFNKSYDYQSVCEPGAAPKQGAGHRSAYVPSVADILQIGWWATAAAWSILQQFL
T1 sequence (P54289 947-1103 partner limits assumed): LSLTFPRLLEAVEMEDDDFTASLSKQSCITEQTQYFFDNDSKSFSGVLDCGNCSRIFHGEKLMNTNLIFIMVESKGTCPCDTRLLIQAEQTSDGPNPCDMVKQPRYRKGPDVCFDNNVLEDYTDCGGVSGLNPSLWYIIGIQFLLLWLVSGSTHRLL

| SMILES | pIC50 (Table 4) | pIC50 (Table 5) | also measured |
| --- | --- | --- | --- |
| COc1cc(C(=O)NCc2ccc(S(=O)(=O)c3cccc(C(F)(F)F)c3)cn2)cc(Cl)n1 [Compound 101, 2-chloro-6-methoxy-N-((5-((3-(trifluoromethyl)phenyl)sulfonyl)pyridin-2-yl)methyl)isonicotinamide] | 5.84 | – | – |
| O=C(CCC(F)(F)F)NCc1ccc(S(=O)(=O)c2cccc(C(F)(F)F)c2)cn1 [Compound 105, 4,4,4-trifluoro-N-((5-((3-(trifluoromethyl)phenyl)sulfonyl)pyridin-2-yl)methyl)butanamide] | 5.60 | – | – |
| CC(C)(CNC(=O)c1ncc(C(F)(F)F)cc1S(C)(=O)=O)S(=O)(=O)c1cccc(C(F)(F)F)c1 [Compound 156, N-(2-methyl-2-((3-(trifluoromethyl)phenyl)sulfonyl)propyl)-3-(methylsulfonyl)-5-(trifluoromethyl)picolinamide] | – | 5.97 | – |
| CC(C)(CNC(=O)c1ccnc(Cl)c1)S(=O)(=O)c1cccc(C(F)(F)F)c1 [Compound 180, 2-chloro-N-(2-methyl-2-((3-(trifluoromethyl)phenyl)sulfonyl)propyl)isonicotinamide] | – | 5.40 | – |
| CC(C)(NC(=O)CC(C)(C)S(=O)(=O)c1cccc(C(F)(F)F)c1)c1ccccc1 [Compound 152, 3-methyl-N-(2-phenylpropan-2-yl)-3-((3-(trifluoromethyl)phenyl)sulfonyl)butanamide] | – | 5.37 | – |
| CC(C)(CCNC(=O)[C@H]1CCCC[C@@H]1N)S(=O)(=O)c1cccc(C(F)(F)F)c1 [Compound 208, (1S,2S)-2-amino-N-(3-methyl-3-((3-(trifluoromethyl)phenyl)sulfonyl)butyl)cyclohexanecarboxamide] | – | 5.76 | – |
| O=C(NCc1cc(S(=O)(=O)c2cccc(C(F)(F)F)c2)ccn1)c1cn2cc(C(F)(F)F)ccc2n1 [Compound 116, 6-(trifluoromethyl)-N-((4-((3-(trifluoromethyl)phenyl)sulfonyl)pyridin-2-yl)methyl)imidazo[1,2-a]pyridine-2-carboxamide] | 5.93 | – | – |
| CC(C)(C(=O)NCCC(F)(F)F)S(=O)(=O)c1cccc(C(F)(F)F)c1 [Compound 125, 2-methyl-2-((3-(trifluoromethyl)phenyl)sulfonyl)-N-(3,3,3-trifluoropropyl)propanamide] | – | – | IC50 (FLIPR data CaV2.2 (nM), Table 5): 10000 nM |
| O=C(NCc1cc(S(=O)(=O)c2cccc(C(F)(F)F)c2)ccn1)c1ccnn1CC(F)(F)F [Compound 112, 1-(2,2,2-trifluoroethyl)-N-((4-((3-(trifluoromethyl)phenyl)sulfonyl)pyridin-2-yl)methyl)-1H-pyrazole-5-carboxamide] | 5.99 | – | – |
| CC(C)(CCNC(=O)c1ccc(C(F)(F)F)nc1S(C)(=O)=O)S(=O)(=O)c1cccc(C(F)(F)F)c1 [Compound 183, N-(3-methyl-3-((3-(trifluoromethyl)phenyl)sulfonyl)butyl)-2-(methylsulfonyl)-6-(trifluoromethyl)nicotinamide] | – | 5.81 | – |
| CN1CCCCC1C(=O)NCCC(C)(C)S(=O)(=O)c1cccc(C(F)(F)F)c1 (stereo not shown) [Compound 221, 1-methyl-N-(3-methyl-3-((3-(trifluoromethyl)phenyl)sulfonyl)butyl)piperidine-2-carboxamide] | – | 5.21 | – |
| COc1cc(C(=O)NCc2ccccc2S(=O)(=O)c2cccc(C(F)(F)F)c2)cc(Cl)n1 [Compound 49, 2-chloro-6-methoxy-N-(2-((3-(trifluoromethyl)phenyl)sulfonyl)benzyl)isonicotinamide] | 5.98 | – | – |
| CC(C)(CCNC(=O)[C@@H](N)c1ccccc1)S(=O)(=O)c1cccc(C(F)(F)F)c1 [Compound 205, (S)-2-amino-N-(3-methyl-3-((3-(trifluoromethyl)phenyl)sulfonyl)butyl)-2-phenylacetamide] | – | 5.83 | – |
| CC(C)(N)C(=O)NCc1ccc(S(=O)(=O)c2cccc(C(F)(F)F)c2)cc1 [Compound 64, 2-amino-2-methyl-N-(4-((3-(trifluoromethyl)phenyl)sulfonyl)benzyl)propanamide] | 5.39 | – | – |
| O=C(NCc1ccccc1S(=O)(=O)c1cccc(C(F)(F)F)c1)c1ccnn1CC(F)(F)F [Compound 48, 1-(2,2,2-trifluoroethyl)-N-(2-((3-(trifluoromethyl)phenyl)sulfonyl)benzyl)-1H-pyrazole-5-carboxamide] | 5.78 | – | – |
| O=C(NCc1ccc(S(=O)(=O)c2cccc(C(F)(F)F)c2)cn1)[C@H]1C[C@@H](O)CN1 [Compound 106, (2R,4R)-4-hydroxy-N-((5-((3-(trifluoromethyl)phenyl)sulfonyl)pyridin-2-yl)methyl)pyrrolidine-2-carboxamide] | 5.23 | – | – |

| SMILES | pIC50 (Table 4) | pIC50 (Table 5) | also measured |
| --- | --- | --- | --- |
| Cc1cncc(C(=O)NCC(C)(C)S(=O)(=O)c2cccc(C(F)(F)F)c2)c1 [Compound 173, 5-methyl-N-(2-methyl-2-((3-(trifluoromethyl)phenyl)sulfonyl)propyl)nicotinamide] | – | 5.04 | – |
| CC(C)(C)C(=O)Nc1ncccc1C(=O)NCC(C)(C)S(=O)(=O)c1cccc(C(F)(F)F)c1 [Compound 163, N-(2-methyl-2-((3-(trifluoromethyl)phenyl)sulfonyl)propyl)-2-pivalamidonicotinamide] | – | 5.65 | – |
| CC(C)(CCNC(=O)C1(N)CCCCC1)S(=O)(=O)c1cccc(C(F)(F)F)c1 [Compound 207, 1-amino-N-(3-methyl-3-((3-(trifluoromethyl)phenyl)sulfonyl)butyl)cyclohexanecarboxamide] | – | 5.86 | – |
| CC(C)(CCNC(=O)C1(N)CCC1)S(=O)(=O)c1cccc(C(F)(F)F)c1 [Compound 203, 1-amino-N-(3-methyl-3-((3-(trifluoromethyl)phenyl)sulfonyl)butyl)cyclobutanecarboxamide] | – | 5.23 | – |
| Cc1ccc(C(=O)NCC(C)(C)S(=O)(=O)c2cccc(C(F)(F)F)c2)c(C)c1 [Compound 169, 2,4-dimethyl-N-(2-methyl-2-((3-(trifluoromethyl)phenyl)sulfonyl)propyl)benzamide] | – | 5.87 | – |
| COc1cc(CCNC(=O)C(C)(C)S(=O)(=O)c2cccc(C(F)(F)F)c2)ccc1O [Compound 139, N-(4-hydroxy-3-methoxyphenethyl)-2-methyl-2-((3-(trifluoromethyl)phenyl)sulfonyl)propanamide] | – | 5.91 | – |
| CC(C)(CCNC(=O)[C@@H]1C[C@@H](O)CN1)S(=O)(=O)c1cccc(C(F)(F)F)c1 [Compound 217, (2S,4R)-4-hydroxy-N-(3-methyl-3-((3-(trifluoromethyl)phenyl)sulfonyl)butyl)pyrrolidine-2-carboxamide] | – | 5.09 | – |
| CC(C)(CCNC(=O)[C@@H]1C[C@@H](F)CN1)S(=O)(=O)c1cccc(C(F)(F)F)c1 [Compound 216, (2S,4R)-4-fluoro-N-(3-methyl-3-((3-(trifluoromethyl)phenyl)sulfonyl)butyl)pyrrolidine-2-carboxamide] | – | 5.05 | – |
| O=C(NCc1ccccc1S(=O)(=O)c1cccc(C(F)(F)F)c1)c1ccc(C(F)(F)F)nc1 [Compound 38] | 5.95 | – | – |
| CC(C)(CNC(=O)c1ccnc(F)c1)S(=O)(=O)c1cccc(C(F)(F)F)c1 [Compound 177, 2-fluoro-N-(2-methyl-2-((3-(trifluoromethyl)phenyl)sulfonyl)propyl)isonicotinamide] | – | 5.00 | – |
| O=C(NCc1ccc(S(=O)(=O)c2cccc(C(F)(F)F)c2)cc1)[C@@H]1C[C@@H](O)CN1 [Compound 74, (2S,4R)-4-hydroxy-N-(4-((3-(trifluoromethyl)phenyl)sulfonyl)benzyl)pyrrolidine-2-carboxamide] | 5.63 | – | – |
| CCOc1ncccc1C(=O)NCC(C)(C)S(=O)(=O)c1cccc(C(F)(F)F)c1 [Compound 162, 2-ethoxy-N-(2-methyl-2-((3-(trifluoromethyl)phenyl)sulfonyl)propyl)nicotinamide] | – | 5.58 | – |
| CC(C)(CNC(=O)c1ccc(S(C)(=O)=O)cc1)S(=O)(=O)c1cccc(C(F)(F)F)c1 [Compound 171, N-(2-methyl-2-((3-(trifluoromethyl)phenyl)sulfonyl)propyl)-4-(methylsulfonyl)benzamide] | – | 5.09 | – |
| CC(C)(NC(=O)C(C)(C)S(=O)(=O)c1cccc(C(F)(F)F)c1)c1ccccc1 [Compound 126, 2-methyl-N-(2-phenylpropan-2-yl)-2-((3-(trifluoromethyl)phenyl)sulfonyl)propanamide] | – | 5.37 | – |
| CC(C)(C(=O)N1Cc2ccncc2C1)S(=O)(=O)c1cccc(C(F)(F)F)c1 [Compound 148, 2-methyl-1-(1H-pyrrolo[3,4-c]pyridin-2(3H)-yl)-2-((3-(trifluoromethyl)phenyl)sulfonyl)propan-1-one] | – | 5.00 | – |
